One assay concerns Aβtotal. The assay is described as follows: In vivo efficacy B-1a/B-2a: brain soluble Aβtotal in non-transgenic rodents, ELISA. Also noted: species or system mouse. The following applies: dose 30 mg/kg oral dosing, brain soluble fraction, untreated animals (Ctrl) set at 100; for response vs control in vivo at 30 mg/kg: Mus musculus, po, 4 h, read-out: Aβtotal (% vs Ctrl)_Mean. An excerpt: (§1) To determine whether acute administration of an Aβ42 lowering agent would reduce Aβ42 levels in vivo, non-transgenic rodents, e.g. mice or rats were used. Animals treated with the Aβ42 lowering agent were examined and compared to those untreated or treated with vehicle and brain levels of soluble Aβ42 and total Aβ were quantitated by standard techniques, for example, using ELISA. Treatment periods varied from hours (h) to days and were adjusted based on the results of the Aβ42 lowering once a time course of onset of effect could be established.
(§2) A typical protocol for measuring Aβ42 lowering in vivo is shown but it is only one of many variations that could be used to optimize the levels of detectable Aβ. For example, Aβ42 lowering compounds were formulated in 20% of Captisol® (a sulfobutyl ether of β-cyclodextrin) in water or 20% hydroxypropyl β cyclodextrin. The Aβ42 lowering agents were administered as a single oral dose or by any acceptable route of administration to overnight fasted animals. After 4 h, the animals were sacrificed and Aβ42 levels were analysed.
(§3) Blood was collected by decapitation and exsanguinations in EDTA-treated collection tubes. Blood was centrifuged at 1900 g for 10 minutes (min) at 4° C. and the plasma recovered and flash frozen for later analysis. The brain was removed from the cranium and hindbrain. The cerebellum was removed and the left and right hemisphere were separated. The left hemisphere was stored at −18° C. for quantitative analysis of test compound levels. The right hemisphere was rinsed with phosphate-buffered saline (PBS) buffer and immediately frozen on dry ice and stored at −80° C. until homogenization for biochemical assays.
(§4) Mouse brains from non-transgenic animals were resuspended in 8 volumes of 0.4% DEA (diethylamine)/50 mM NaCl containing protease inhibitors (Roche-11873580001 or 04693159001) per gram of tissue, e.g. for 0.158 g brain, add 1.264 mL of 0.4% DEA. All samples were homogenized in the FastPrep-24 system (MP Biomedicals) using lysing matrix D (MPBio #6913-100) at 6 m/s for 20 seconds. Homogenates were centrifuged at 20800×g for 5 min and supernatants collected. Supernatants were centrifuged at 221.300×g for 50 min. The resulting high speed supernatants were then transferred to fresh eppendorf tubes. Nine parts of supernatant were neutralized with 1 part 0.5 M Tris-HCl pH 6.8 and used to quantify Aβtotal and Aβ42.
(§5) To quantify the amount of Aβtotal and Aβ42 in the soluble fraction of the brain homogenates, Enzyme-Linked-Immunosorbent-Assays were used. Briefly, the standards (a dilution of synthetic Aβ1-40 and Aβ1-42, Bachem) were prepared in 1.5 mL Eppendorf tube in Ultraculture, with final concentrations ranging from 10000 to 0.3 pg/mL. The samples and standards were co-incubated with HRPO-labelled N-terminal antibody JRF/rAμ/2 for Aβ42 detection and with the biotinylated mid-domain antibody 4G8 for Aβtotal detection. 50 μl of conjugate/sample or conjugate/standards mixtures were then added to the antibody-coated plate (the capture antibodies selectively recognize the C-terminal end of Aβ42, antibody JRF/cAβ42/26, for Aβ42 detection and the N-terminus of AB, antibody JRF/rAβ/2, for Aβtotal detection). The plate was allowed to incubate overnight at 4° C. in order to allow formation of the antibody-amyloid complex. Following this incubation and subsequent wash steps the ELISA for Aβ42 quantification was finished by addition of Quanta Blu fluorogenic peroxidase substrate according to the manufacturer's instructions (Pierce Corp., Rockford, Ill.). A reading was performed after 10 to 15 min (excitation 320 nm/emission 420 nm).
For Aβtotal detection, a Streptavidine-Peroxidase-Conjugate was added, followed 60 min later by an additional wash step and addition of Quanta Blu fluorogenic peroxidase substrate according to the manufacturer's instructions (Pierce Corp., Rockford, Ill.). A reading was performed after 10 to 15 min (excitation 320 nm/emission 420 nm). […]
In general terms: ELISA stands for enzyme-linked immunosorbent assay.

For another assay, the system named is Aβ42. The experiment in a line: In vivo efficacy B-1a: brain soluble Aβ42 in non-transgenic rodents, ELISA. Also noted: species or system mouse. Conditions: dose 30 mg/kg oral dosing, brain soluble fraction, untreated animals (Ctrl) set at 100; for response vs control in vivo at 30 mg/kg: Mus musculus, po, read-out: Aβ42 (% vs Ctrl)_Mean.
Description: as §1, §2, §3, §4, §5
In this model a Aβ42 lowering compared to untreated animals would be advantageous, in particular a Aβ42 lowering with at least 10%, more in particular a Aβ42 lowering with at least 20%.
The results are shown in Table 4 (dose 30 mg/kg oral dosing) (value for untreated animals as control (Ctrl) was set at 100): […]

The structures appear in SMILES notation.

For the compound `COc1c(C#N)ccc2[nH]c(-c3cn4c(n3)C(c3ccc(F)cc3C)OCC4)cc12` (centres unmarked) [Compound 46, 2-[8-(4-fluoro-2-methylphenyl)-5,6-dihydro-8H-imidazo[2,1-c][1,4]oxazin-2-yl]-4-methoxy-1H-indole-5-carbonitrile], the “Aβtotal (% vs Ctrl)_Mean” value with Aβtotal (30 mg/kg) is 88 % vs Ctrl. Also, in the assay with Aβ42, the response vs control in vivo at 30 mg/kg was 52%.

Consider `COc1c(C#N)ccc2[nH]c(-c3nc4n(n3)CCOC4c3ccc(F)cc3C)cc12` (centres unmarked) [Compound 111, 2-[8-(4-fluoro-2-methylphenyl)-5,6-dihydro-8H-[1,2,4]triazolo[5,1-c][1,4]oxazin-2-yl]-4-methoxy-1H-indole-5-carbonitrile], for which the response vs control in vivo at 30 mg/kg was 120% in the assay with Aβtotal and 87% in the assay with Aβ42.

With `COc1c(C#N)ccc2[nH]c(-c3nc4n(n3)CCOC4c3ccc(F)cc3C)cc12` (centres unmarked) [Compound 114, 2-[8-(4-fluoro-2-methylphenyl)-5,6-dihydro-8H-[1,2,4]triazolo[5,1-c][1,4]oxazin-2-yl]-4-methoxy-1H-indole-5-carbonitrile], in the assay on Aβ42 (30 mg/kg), the “Aβ42 (% vs Ctrl)_Mean” value is on record as 95 % vs Ctrl.

With `N#Cc1ccc2[nH]c(-c3nc4n(n3)CCCC4c3cccc(OC(F)(F)F)c3)cc2c1` (centres unmarked) [Compound 20, 2-[5,6,7,8-tetrahydro-8-[3-(trifluoromethoxy)phenyl][1,2,4]triazolo[1,5-a]pyridin-2-yl]-1H-indole-5-carbonitrile], the response vs control in vivo at 30 mg/kg in the assay on Aβtotal stood at 113%; in the assay on Aβ42, 93%.

As to `N#Cc1ccc2[nH]c(-c3cn4c(n3)C(c3ccccc3Cl)CCC4)cc2c1` (centres unmarked) [Compound 16, 2-[8-(2-chlorophenyl)-5,6,7,8-tetrahydroimidazo[1,2-a]pyridin-2-yl]-1H-indole-5-carbonitrile], the response vs control in vivo at 30 mg/kg in the assay with Aβtotal worked out at 95%; in the assay with Aβ42 it was 74%.

In the case of `Cc1ccccc1C1CCCn2nc(-c3cc4cc(C#N)ccc4[nH]3)nc21` (centres unmarked) [Compound 13, 2-[5,6,7,8-tetrahydro-8-(2-methylphenyl)[1,2,4]triazolo[1,5-a]pyridin-2-yl]-1H-indole-5-carbonitrile], the response vs control in vivo at 30 mg/kg was determined as 80% in the assay with Aβtotal and 79% in the assay on Aβ42.

Take `Cc1cn(-c2ccc3[nH]c(-c4nc5n(n4)CCCC5c4ccccc4C)cc3n2)cn1.Cl` (centres unmarked) [Compound 5, 5,6,7,8-tetrahydro-2-[5-(4-methyl-1H-imidazol-1-yl)-1H-pyrrolo[3,2-b]pyridin-2-yl]-8-(2-methylphenyl)-[1,2,4]triazolo[1,5-a]pyridine]: the response vs control in vivo at 30 mg/kg was 80% in the assay on Aβtotal and 106% in the assay with Aβ42.

Turning to `Cc1cn(-c2ccc3[nH]c(-c4nc5n(n4)CCCC5c4ccc(F)cc4C)cc3n2)cn1` (centres unmarked) [Compound 65, 8-(4-fluoro-2-methylphenyl)-5,6,7,8-tetrahydro-2-[5-(4-methyl-1H-imidazol-1-yl)-1H-pyrrolo[3,2-b]pyridin-2-yl]-[1,2,4]triazolo[1,5-a]pyridine], the values for the response vs control in vivo at 30 mg/kg in the assay with Aβtotal and in the assay on Aβ42 were 108% and 82%, respectively.

With `Cc1cc(F)ccc1C1CCCn2nc(-c3[nH]c4ccc(C#N)cc4c3F)nc21` (single isomer, unassigned) [Compound 182, 3-fluoro-2-[8-(4-fluoro-2-methylphenyl)-5,6,7,8-tetrahydro[1,2,4]triazolo[1,5-a]pyridin-2-yl]-1H-indole-5-carbonitrile], the response vs control in vivo at 30 mg/kg with Aβtotal was determined as 118%; in the assay with Aβ42, 122%.

Regarding `Cc1cc(F)ccc1C1CCCn2cc(-c3cc4cc(C#N)ccc4[nH]3)nc21` (centres unmarked) [Compound 64, 2-[8-(4-fluoro-2-methylphenyl)-5,6,7,8-tetrahydroimidazo[1,2-a]pyridin-2-yl]-1H-indole-5-carbonitrile], the “Aβtotal (% vs Ctrl)_Mean” value with Aβtotal (30 mg/kg) came out at 100 % vs Ctrl. Besides, in the assay on Aβ42 (30 mg/kg), the “Aβ42 (% vs Ctrl)_Mean” value came to 48 % vs Ctrl.

Consider `COc1c(C#N)ccc2[nH]c(-c3nc4n(n3)CCCC4c3ccccc3C(F)(F)F)cc12` (centres unmarked) [Compound 7, 4-methoxy-2-[5,6,7,8-tetrahydro-8-[2-(trifluoromethyl)phenyl][1,2,4]triazolo[1,5-a]pyridin-2-yl]-1H-indole-5-carbonitrile], for which the response vs control in vivo at 30 mg/kg with Aβtotal worked out at 96%; in the assay on Aβ42, 82%.

For the compound `COc1c(C#N)ccc2[nH]c(-c3nc4n(n3)CCCC4c3ccc(F)cc3C)cc12` (centres unmarked) [Compound 59, 2-[8-(4-fluoro-2-methylphenyl)-5,6,7,8-tetrahydro[1,2,4]triazolo[1,5-a]pyridin-2-yl]-4-methoxy-1H-indole-5-carbonitrile], the response vs control in vivo at 30 mg/kg in the assay on Aβtotal turned out to be 86%; in the assay on Aβ42, 55%.

With `Cc1ccccc1C1CCCn2nc(-c3cc4cc(C#N)ccc4[nH]3)nc21` (centres unmarked) [Compound 12, 2-[5,6,7,8-tetrahydro-8-(2-methylphenyl)[1,2,4]triazolo[1,5-a]pyridin-2-yl]-1H-indole-5-carbonitrile], the “Aβtotal (% vs Ctrl)_Mean” value in the assay with Aβtotal (30 mg/kg) is reported as 91 % vs Ctrl. Besides, the “Aβ42 (% vs Ctrl)_Mean” value in the assay with Aβ42 (30 mg/kg) came to 94 % vs Ctrl.

Take `Cc1cn(-c2ccc3[nH]c(-c4nc5n(n4)CCCC5c4ccc(F)cc4C)cc3c2)cn1` (single isomer, unassigned) [Compound 77, 8-(4-fluoro-2-methylphenyl)-5,6,7,8-tetrahydro-2-[5-(4-methyl-1H-imidazol-1-yl)-1H-indol-2-yl]-[1,2,4]triazolo[1,5-a]pyridine]: the response vs control in vivo at 30 mg/kg in the assay with Aβtotal is 102%; in the assay with Aβ42, 104%.

Consider `COc1c(C#N)ccc2[nH]c(-c3cn4c(n3)C(c3ccc(F)cc3C)OCC4)cc12` (centres unmarked) [Compound 47, 2-[8-(4-fluoro-2-methylphenyl)-5,6-dihydro-8H-imidazo[2,1-c][1,4]oxazin-2-yl]-4-methoxy-1H-indole-5-carbonitrile], for which, in the assay on Aβtotal (30 mg/kg), the “Aβtotal (% vs Ctrl)_Mean” value was 117 % vs Ctrl. In addition, the “Aβ42 (% vs Ctrl)_Mean” value with Aβ42 (30 mg/kg) was 45 % vs Ctrl.

For `COc1c(C#N)ccc2[nH]c(-c3cn4c(n3)C(c3ccc(F)cc3C)CCC4)cc12` (centres unmarked) [Compound 74, 2-[8-(4-fluoro-2-methylphenyl)-5,6,7,8-tetrahydroimidazo[1,2-a]pyridin-2-yl]-4-methoxy-1H-indole-5-carbonitrile], the figures for the response vs control in vivo at 30 mg/kg with Aβtotal and with Aβ42 were 85% and 49%, respectively.

In the case of `Cc1cn(-c2ccc3[nH]c(-c4nc5n(n4)CCOC5c4ccc(F)cc4C)cc3c2)cn1` (centres unmarked) [Compound 39, 8-(4-fluoro-2-methylphenyl)-5,6-dihydro-2-[5-(4-methyl-1H-imidazol-1-yl)-1H-indo-2-yl]-8H-[1,2,4]triazolo[5,1-c][1,4]oxazine], the “Aβtotal (% vs Ctrl)_Mean” value in the assay with Aβtotal is reported as 99 % vs Ctrl. Also, the “Aβ42 (% vs Ctrl)_Mean” value in the assay on Aβ42 is on record as 74 % vs Ctrl.

For `Cc1cn(-c2cc3cc(-c4nc5n(n4)CCCC5c4ccc(F)cc4C)[nH]c3cn2)cn1` (centres unmarked) [Compound 71, 8-(4-fluoro-2-methylphenyl)-5,6,7,8-tetrahydro-2-[5-(4-methyl-1H-imidazol-1-yl)-1H-pyrrolo[2,3-c]pyridin-2-yl]-[1,2,4]triazolo[1,5-a]pyridine], the values for the response vs control in vivo at 30 mg/kg in the assay with Aβtotal and with Aβ42 were 115% and 108%, respectively.

(Values after US9115143B2, “Substituted indole derivatives as gamma secretase modulators” (Janssen Pharmaceuticals, Inc., priority 2011, dated 2015).)
